{"source": "patent US20240124427A1", "about": "“HYDROXYHETEROCYCLOALKANE-CARBAMOYL DERIVATIVES” (Idorsia Pharmaceuticals Ltd, priority 2021, published 2024)", "data": [{"target": "human Gal-3 (hGal-3) (Homo sapiens (Human), UniProt P17931)", "sequence (P17931 whole entry)": "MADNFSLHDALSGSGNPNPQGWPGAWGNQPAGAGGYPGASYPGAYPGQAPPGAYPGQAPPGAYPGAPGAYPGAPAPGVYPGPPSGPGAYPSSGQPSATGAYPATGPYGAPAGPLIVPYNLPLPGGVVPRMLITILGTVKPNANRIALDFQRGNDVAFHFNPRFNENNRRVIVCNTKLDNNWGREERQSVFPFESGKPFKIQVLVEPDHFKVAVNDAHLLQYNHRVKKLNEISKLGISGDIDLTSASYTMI", "test": "Competitive binding assay: biotinylated hGal-3 binding to microplate-adsorbed asialofetuin (ASF)", "settings": "Activity on hGal-3; mean values of several measurements; mixture of diastereomers measured where not separated", "method_in_brief": "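Spectrophotometric read-out using streptavidin-peroxidase and ABTS quantifies how much biotin-hGal-3 remains bound to microplate asialofetuin after 3 h at 4 °C with compound present. Values are means of repeated IC50 determinations.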", "units": {"IC50": "µM"}, "values": [{"smiles": "CO[C@@H]1[C@@H](n2cc(-c3cc(F)c(Cl)c(F)c3)nn2)[C@@H](O)[C@@H](CO)O[C@H]1C(=O)N(c1cc(C)cc(Br)c1)[C@H]1CN(C(C)=O)C[C@@H]1O", "note": "[Example 76, (2R,3R,4S,5R,6R)-N-((3S,4S)-1-acetyl-4-hydroxypyrrolidin-3-yl)-N-(3-bromo-5-methylphenyl)-4-(4-(4-chloro-3,5-difluorophenyl)-1H-1,2,3-triazol-1-yl)-5-hydroxy-6-(hydroxymethyl)-3-methoxytetrahydro-2H-pyran-2-carboxamide]", "IC50": 0.037}, {"smiles": "CO[C@@H]1[C@@H](n2cc(-c3cc(F)c(F)c(F)c3)nn2)[C@@H](O)[C@@H](CO)O[C@H]1C(=O)N(c1cc(Cl)cc(Cl)c1)[C@@H]1CN(C(C)=O)C[C@H]1O", "note": "[Example 77, (2R,3R,4S,5R,6R)-N-((3R,4R)-1-acetyl-4-hydroxypyrrolidin-3-yl)-N-(3,5-dichlorophenyl)-5-hydroxy-6-(hydroxymethyl)-3-methoxy-4-(4-(3,4,5-trifluorophenyl)-1H-1,2,3-triazol-1-yl)tetrahydro-2H-pyran-2-carboxamide]", "IC50": 0.08}, {"smiles": "CO[C@@H]1[C@@H](n2cc(-c3cc(F)c(F)c(F)c3)nn2)[C@@H](O)[C@@H](CO)O[C@H]1C(=O)N(c1cc(Br)cc(C#N)c1)[C@@H]1CN(C(C)=O)C[C@H]1O", "note": "[Example 78, (2R,3R,4S,5R,6R)-N-((3R,4R)-1-acetyl-4-hydroxypyrrolidin-3-yl)-N-(3-bromo-5-cyanophenyl)-5-hydroxy-6-(hydroxymethyl)-3-methoxy-4-(4-(3,4,5-trifluorophenyl)-1H-1,2,3-triazol-1-yl)tetrahydro-2H-pyran-2-carboxamide]", "IC50": 0.071}, {"smiles": "CO[C@@H]1[C@@H](n2cc(-c3cc(F)c(F)c(F)c3)nn2)[C@@H](O)[C@@H](CO)O[C@H]1C(=O)N(c1cc(C)cc(Br)c1)[C@@H]1CN(C(C)=O)C[C@H]1O", "note": "[Example 79, (2R,3R,4S,5R,6R)-N-((3R,4R)-1-acetyl-4-hydroxypyrrolidin-3-yl)-N-(3-bromo-5-methylphenyl)-5-hydroxy-6-(hydroxymethyl)-3-methoxy-4-(4-(3,4,5-trifluorophenyl)-1H-1,2,3-triazol-1-yl)tetrahydro-2H-pyran-2-carboxamide]", "IC50": 0.076}, {"smiles": "CO[C@@H]1[C@@H](n2cc(-c3ccc(Br)c(F)c3F)nn2)[C@@H](O)[C@@H](CO)O[C@H]1C(=O)N(c1cc(Cl)cc(Cl)c1)[C@@H]1CN(C(C)=O)C[C@H]1O", "note": "[Example 80, (2R,3R,4S,5R,6R)-N-((3R,4R)-1-acetyl-4-hydroxypyrrolidin-3-yl)-4-(4-(4-bromo-2,3-difluorophenyl)-1H-1,2,3-triazol-1-yl)-N-(3,5-dichlorophenyl)-5-hydroxy-6-(hydroxymethyl)-3-methoxytetrahydro-2H-pyran-2-carboxamide]", "IC50": 0.031}, {"smiles": "CO[C@@H]1[C@@H](n2cc(-c3cc(F)c(C)c(F)c3)nn2)[C@@H](O)[C@@H](CO)O[C@H]1C(=O)N(c1cc(Br)cc(Br)c1)[C@@H]1CN(C(C)=O)C[C@H]1O", "note": "[Example 81, (2R,3R,4S,5R,6R)-N-((3R,4R)-1-acetyl-4-hydroxypyrrolidin-3-yl)-N-(3,5-dibromophenyl)-4-(4-(3,5-difluoro-4-methylphenyl)-1H-1,2,3-triazol-1-yl)-5-hydroxy-6-(hydroxymethyl)-3-methoxytetrahydro-2H-pyran-2-carboxamide]", "IC50": 0.04}, {"smiles": "CO[C@@H]1[C@@H](n2cc(-c3cc(F)c(C)c(F)c3)nn2)[C@@H](O)[C@@H](CO)O[C@H]1C(=O)N(c1cc(C)cc(Br)c1)[C@@H]1CN(C(C)=O)C[C@H]1O", "note": "[Example 82, (2R,3R,4S,5R,6R)-N-((3R,4R)-1-acetyl-4-hydroxypyrrolidin-3-yl)-N-(3-bromo-5-methylphenyl)-4-(4-(3,5-difluoro-4-methylphenyl)-1H-1,2,3-triazol-1-yl)-5-hydroxy-6-(hydroxymethyl)-3-methoxytetrahydro-2H-pyran-2-carboxamide]", "IC50": 0.045}, {"smiles": "CO[C@@H]1[C@@H](n2cc(-c3cc(F)c(Cl)c(F)c3)nn2)[C@@H](O)[C@@H](CO)O[C@H]1C(=O)N(c1cc(C)cc(Br)c1)[C@@H]1CN(C(C)=O)C[C@H]1O", "note": "[Example 83, (2R,3R,4S,5R,6R)-N-((3R,4R)-1-acetyl-4-hydroxypyrrolidin-3-yl)-N-(3-bromo-5-methylphenyl)-4-(4-(4-chloro-3,5-difluorophenyl)-1H-1,2,3-triazol-1-yl)-5-hydroxy-6-(hydroxymethyl)-3-methoxytetrahydro-2H-pyran-2-carboxamide]", "IC50": 0.067}, {"smiles": "CO[C@@H]1[C@@H](n2cc(-c3cc(F)c(F)c(F)c3)nn2)[C@@H](O)[C@@H](CO)O[C@H]1C(=O)N(c1cc(Br)cc(C#N)c1)[C@H]1CN(C=O)C[C@@H]1O", "note": "[Example 89, (2R,3R,4S,5R,6R)-N-(3-bromo-5-cyanophenyl)-N-((3S,4S)-1-formyl-4-hydroxypyrrolidin-3-yl)-5-hydroxy-6-(hydroxymethyl)-3-methoxy-4-(4-(3,4,5-trifluorophenyl)-1H-1,2,3-triazol-1-yl)tetrahydro-2H-pyran-2-carboxamide]", "IC50": 0.038}, {"smiles": "CO[C@@H]1[C@@H](n2cc(-c3cc(F)c(F)c(F)c3)nn2)[C@@H](O)[C@@H](CO)O[C@H]1C(=O)N(c1cc(C)cc(Br)c1)[C@H]1CN(C=O)C[C@@H]1O", "note": "[Example 90, (2R,3R,4S,5R,6R)-N-(3-bromo-5-methylphenyl)-N-((3S,4S)-1-formyl-4-hydroxypyrrolidin-3-yl)-5-hydroxy-6-(hydroxymethyl)-3-methoxy-4-(4-(3,4,5-trifluorophenyl)-1H-1,2,3-triazol-1-yl)tetrahydro-2H-pyran-2-carboxamide]", "IC50": 0.02}, {"smiles": "CO[C@@H]1[C@@H](n2cc(-c3ccc(Br)c(F)c3F)nn2)[C@@H](O)[C@@H](CO)O[C@H]1C(=O)N(c1cc(Cl)cc(Cl)c1)[C@H]1CN(C=O)C[C@@H]1O", "note": "[Example 91, (2R,3R,4S,5R,6R)-4-(4-(4-bromo-2,3-difluorophenyl)-1H-1,2,3-triazol-1-yl)-N-(3,5-dichlorophenyl)-N-((3S,4S)-1-formyl-4-hydroxypyrrolidin-3-yl)-5-hydroxy-6-(hydroxymethyl)-3-methoxytetrahydro-2H-pyran-2-carboxamide]", "IC50": 0.02}, {"smiles": "CO[C@@H]1[C@@H](n2cc(-c3ccc(C)c(F)c3F)nn2)[C@@H](O)[C@@H](CO)O[C@H]1C(=O)N(c1cc(C)cc(Br)c1)[C@H]1CN(C=O)C[C@@H]1O", "note": "[Example 92, (2R,3R,4S,5R,6R)-N-(3-bromo-5-methylphenyl)-4-(4-(2,3-difluoro-4-methylphenyl)-1H-1,2,3-triazol-1-yl)-N-((3S,4S)-1-formyl-4-hydroxypyrrolidin-3-yl)-5-hydroxy-6-(hydroxymethyl)-3-methoxytetrahydro-2H-pyran-2-carboxamide]", "IC50": 0.019}, {"smiles": "CO[C@@H]1[C@@H](n2cc(-c3cc(F)c(F)c(F)c3)nn2)[C@@H](O)[C@@H](CO)O[C@H]1C(=O)N(c1cc(Br)cc(C#N)c1)[C@@H]1CN(C=O)C[C@H]1O", "note": "[Example 93, (2R,3R,4S,5R,6R)-N-(3-bromo-5-cyanophenyl)-N-((3R,4R)-1-formyl-4-hydroxypyrrolidin-3-yl)-5-hydroxy-6-(hydroxymethyl)-3-methoxy-4-(4-(3,4,5-trifluorophenyl)-1H-1,2,3-triazol-1-yl)tetrahydro-2H-pyran-2-carboxamide]", "IC50": 0.08}, {"smiles": "CO[C@@H]1[C@@H](n2cc(-c3cc(F)c(F)c(F)c3)nn2)[C@@H](O)[C@@H](CO)O[C@H]1C(=O)N(c1cc(C)cc(Br)c1)[C@@H]1CN(C=O)C[C@H]1O", "note": "[Example 94, (2R,3R,4S,5R,6R)-N-(3-bromo-5-methylphenyl)-N-((3R,4R)-1-formyl-4-hydroxypyrrolidin-3-yl)-5-hydroxy-6-(hydroxymethyl)-3-methoxy-4-(4-(3,4,5-trifluorophenyl)-1H-1,2,3-triazol-1-yl)tetrahydro-2H-pyran-2-carboxamide]", "IC50": 0.086}, {"smiles": "CO[C@@H]1[C@@H](n2cc(-c3ccc(C)c(F)c3F)nn2)[C@@H](O)[C@@H](CO)O[C@H]1C(=O)N(c1cc(C)cc(Br)c1)[C@@H]1CN(C=O)C[C@H]1O", "note": "[Example 95, (2R,3R,4S,5R,6R)-N-(3-bromo-5-methylphenyl)-4-(4-(2,3-difluoro-4-methylphenyl)-1H-1,2,3-triazol-1-yl)-N-((3R,4R)-1-formyl-4-hydroxypyrrolidin-3-yl)-5-hydroxy-6-(hydroxymethyl)-3-methoxytetrahydro-2H-pyran-2-carboxamide]", "IC50": 0.04}, {"smiles": "CO[C@@H]1[C@@H](n2cc(-c3cc(F)c(F)c(F)c3)nn2)[C@@H](O)[C@@H](CO)O[C@H]1C(=O)N(c1cc(C)cc(Br)c1)[C@H]1CN(C)C[C@@H]1O", "note": "[Example 96, (2R,3R,4S,5R,6R)-N-(3-bromo-5-methylphenyl)-5-hydroxy-N-((3S,4S)-4-hydroxy-1-methylpyrrolidin-3-yl)-6-(hydroxymethyl)-3-methoxy-4-(4-(3,4,5-trifluorophenyl)-1H-1,2,3-triazol-1-yl)tetrahydro-2H-pyran-2-carboxamide]", "IC50": 0.051}, {"smiles": "CCN1C[C@H](O)[C@@H](N(C(=O)[C@@H]2O[C@H](CO)[C@H](O)[C@H](n3cc(-c4cc(F)c(F)c(F)c4)nn3)[C@H]2OC)c2cc(C)cc(Br)c2)C1", "note": "[Example 97, (2R,3R,4S,5R,6R)-N-(3-bromo-5-methylphenyl)-N-((3S,4S)-1-ethyl-4-hydroxypyrrolidin-3-yl)-5-hydroxy-6-(hydroxymethyl)-3-methoxy-4-(4-(3,4,5-trifluorophenyl)-1H-1,2,3-triazol-1-yl)tetrahydro-2H-pyran-2-carboxamide]", "IC50": 0.024}, {"smiles": "CO[C@@H]1[C@@H](n2cc(-c3cc(F)c(F)c(F)c3)nn2)[C@@H](O)[C@@H](CO)O[C@H]1C(=O)N(c1cc(C)cc(Br)c1)[C@H]1CN(S(C)(=O)=O)C[C@@H]1O", "note": "[Example 98, (2R,3R,4S,5R,6R)-N-(3-bromo-5-methylphenyl)-5-hydroxy-N-((3S,4S)-4-hydroxy-1-(methylsulfonyl)pyrrolidin-3-yl)-6-(hydroxymethyl)-3-methoxy-4-(4-(3,4,5-trifluorophenyl)-1H-1,2,3-triazol-1-yl)tetrahydro-2H-pyran-2-carboxamide]", "IC50": 0.029}]}]}
